Laboratory results: the NIST ThermoML archive (doi:10.1016/j.jct.2016.08.026)

Experiment: xn = mol fraction of the nth substance listed
Settings: 101 kPa, Liquid, Pycnometric method

C=CC(=O)OCCCC [butyl 2-propenoate] + CC#N
mass density [kg/m3]
Settings | 293.15 K | 298.15 K | 303.15 K | 308.15 K | 313.15 K | 318.15 K
x2 = 0 | 898.85 | 894.1 | 889.35 | 884.6 | 879.85 | 875.1
x2 = 0.061 | 896.58 | 891.84 | 887.1 | 882.36 | 877.62 | 872.87
x2 = 0.1168 | 894.23 | 889.49 | 884.75 | 880.01 | 875.26 | 870.51
x2 = 0.1832 | 891.06 | 886.31 | 881.56 | 876.81 | 872.05 | 867.29
x2 = 0.2571 | 887.05 | 882.28 | 877.51 | 872.73 | 867.95 | 863.17
x2 = 0.3094 | 883.86 | 879.07 | 874.28 | 869.49 | 864.69 | 859.89
x2 = 0.3825 | 878.86 | 874.05 | 869.23 | 864.41 | 859.59 | 854.77
x2 = 0.4563 | 873.07 | 868.23 | 863.39 | 858.55 | 853.7 | 848.85
x2 = 0.5282 | 866.62 | 861.75 | 856.88 | 852.01 | 847.13 | 842.25
x2 = 0.5779 | 861.58 | 856.69 | 851.79 | 846.89 | 841.99 | 837.09
x2 = 0.6483 | 853.47 | 848.54 | 843.6 | 838.66 | 833.72 | 828.79
x2 = 0.7299 | 842.32 | 837.34 | 832.35 | 827.36 | 822.37 | 817.38
x2 = 0.8143 | 828.2 | 823.15 | 818.1 | 813.05 | 807.99 | 802.93
x2 = 0.9182 | 805.7 | 800.53 | 795.36 | 790.19 | 785.01 | 779.83

C=CC(=O)OC(C)(C)C [tert-butyl acrylate] + CC#N
mass density [kg/m3]
Settings | 293.15 K | 298.15 K | 303.15 K | 308.15 K | 313.15 K | 318.15 K
x2 = 0 | 884.13 | 879.66 | 875.2 | 870.74 | 866.28 | 861.82
x2 = 0.0772 | 881.52 | 877.05 | 872.58 | 868.11 | 863.64 | 859.17
x2 = 0.1496 | 878.71 | 874.23 | 869.74 | 865.25 | 860.76 | 856.27
x2 = 0.2216 | 875.53 | 871.02 | 866.51 | 861.99 | 857.47 | 852.95
x2 = 0.2983 | 871.66 | 867.11 | 862.56 | 858 | 853.44 | 848.88
x2 = 0.3643 | 867.87 | 863.28 | 858.69 | 854.1 | 849.51 | 844.91
x2 = 0.4345 | 863.31 | 858.68 | 854.05 | 849.42 | 844.78 | 840.14
x2 = 0.5074 | 857.88 | 853.2 | 848.52 | 843.84 | 839.16 | 834.47
x2 = 0.5769 | 851.91 | 847.18 | 842.45 | 837.72 | 832.98 | 828.24
x2 = 0.6465 | 844.97 | 840.18 | 835.39 | 830.6 | 825.8 | 821
x2 = 0.7141 | 837.1 | 832.24 | 827.38 | 822.52 | 817.66 | 812.8
x2 = 0.7821 | 827.76 | 822.83 | 817.9 | 812.96 | 808.02 | 803.08
x2 = 0.8603 | 814.71 | 809.68 | 804.64 | 799.6 | 794.56 | 789.51
x2 = 0.9345 | 799.24 | 794.08 | 788.92 | 783.75 | 778.58 | 773.41

C=CC(=O)OCC [ethyl propenoate] + CC#N
mass density [kg/m3]
Settings | 293.15 K | 298.15 K | 303.15 K | 308.15 K | 313.15 K | 318.15 K
x2 = 0 | 921.76 | 915.95 | 910.14 | 904.33 | 898.52 | 892.71
x2 = 0.0611 | 918.24 | 912.49 | 906.74 | 900.99 | 895.24 | 889.48
x2 = 0.1197 | 914.45 | 908.75 | 903.05 | 897.35 | 891.64 | 885.93
x2 = 0.1852 | 909.73 | 904.07 | 898.4 | 892.73 | 887.06 | 881.39
x2 = 0.2385 | 905.48 | 899.84 | 894.2 | 888.55 | 882.9 | 877.25
x2 = 0.2966 | 900.45 | 894.83 | 889.21 | 883.58 | 877.95 | 872.32
x2 = 0.3675 | 893.69 | 888.1 | 882.5 | 876.9 | 871.3 | 865.7
x2 = 0.436 | 886.46 | 880.89 | 875.32 | 869.75 | 864.18 | 858.61
x2 = 0.4982 | 879.23 | 873.69 | 868.15 | 862.61 | 857.07 | 851.53
x2 = 0.5745 | 869.38 | 863.88 | 858.38 | 852.88 | 847.38 | 841.87
x2 = 0.6519 | 858.1 | 852.64 | 847.18 | 841.72 | 836.26 | 830.8
x2 = 0.725 | 846 | 840.58 | 835.16 | 829.74 | 824.32 | 818.9
x2 = 0.8185 | 828.05 | 822.69 | 817.33 | 811.97 | 806.6 | 801.23
x2 = 0.9145 | 805.92 | 800.6 | 795.28 | 789.96 | 784.63 | 779.3

C=CC(=O)OC [methyl propenoate] + CC#N
mass density [kg/m3]
Settings | 293.15 K | 298.15 K | 303.15 K | 308.15 K | 313.15 K | 318.15 K
x2 = 0 | 953.51 | 947.56 | 941.61 | 935.66 | 929.71 | 923.76
x2 = 0.0591 | 948.65 | 942.78 | 936.9 | 931.02 | 925.14 | 919.27
x2 = 0.1171 | 943.34 | 937.51 | 931.68 | 925.85 | 920.01 | 914.17
x2 = 0.17 | 938.02 | 932.22 | 926.42 | 920.62 | 914.81 | 909
x2 = 0.2356 | 930.83 | 925.06 | 919.29 | 913.52 | 907.75 | 901.97
x2 = 0.2977 | 923.4 | 917.66 | 911.92 | 906.18 | 900.43 | 894.68
x2 = 0.3615 | 915.12 | 909.41 | 903.7 | 897.99 | 892.28 | 886.56
x2 = 0.4343 | 904.86 | 899.19 | 893.52 | 887.85 | 882.17 | 876.49
x2 = 0.5014 | 894.57 | 888.94 | 883.31 | 877.67 | 872.03 | 866.39
x2 = 0.5738 | 882.48 | 876.9 | 871.32 | 865.73 | 860.14 | 854.55
x2 = 0.6537 | 867.83 | 862.31 | 856.79 | 851.26 | 845.73 | 840.2
x2 = 0.7623 | 845.33 | 839.89 | 834.45 | 829.01 | 823.57 | 818.13
x2 = 0.8155 | 833.04 | 827.65 | 822.26 | 816.87 | 811.47 | 806.07
x2 = 0.9074 | 809.47 | 804.14 | 798.81 | 793.47 | 788.13 | 782.79
